Positions of bridges follow the written chain, without caps; N, C: chain ends. Non-standard residues stand in square brackets, D forms with d. Residues, ends and D or L forms follow the SMILES beside them. Phe(2-Cl) = N[C@@H](Cc1ccccc1Cl)C(=O)O; NMeF = CN[C@@H](Cc1ccccc1)C(=O)O; hPhe = N[C@@H](CCc1ccccc1)C(=O)O; NMeL = CN[C@@H](CC(C)C)C(=O)O; NMeV = CN[C@H](C(=O)O)C(C)C; Sar = CNCC(=O)O
Assays:
Test in all cases: cell-based
hNav1.7 = hNav1.7 (Homo sapiens, UniProt Q15858); type: cell-based; settings: IonWorks Quattro, use-dependent protocol, hNav1.7; read-out: IWQ Use Nav1.7
Chain of hNav1.7 (Q15858 whole entry, looked up): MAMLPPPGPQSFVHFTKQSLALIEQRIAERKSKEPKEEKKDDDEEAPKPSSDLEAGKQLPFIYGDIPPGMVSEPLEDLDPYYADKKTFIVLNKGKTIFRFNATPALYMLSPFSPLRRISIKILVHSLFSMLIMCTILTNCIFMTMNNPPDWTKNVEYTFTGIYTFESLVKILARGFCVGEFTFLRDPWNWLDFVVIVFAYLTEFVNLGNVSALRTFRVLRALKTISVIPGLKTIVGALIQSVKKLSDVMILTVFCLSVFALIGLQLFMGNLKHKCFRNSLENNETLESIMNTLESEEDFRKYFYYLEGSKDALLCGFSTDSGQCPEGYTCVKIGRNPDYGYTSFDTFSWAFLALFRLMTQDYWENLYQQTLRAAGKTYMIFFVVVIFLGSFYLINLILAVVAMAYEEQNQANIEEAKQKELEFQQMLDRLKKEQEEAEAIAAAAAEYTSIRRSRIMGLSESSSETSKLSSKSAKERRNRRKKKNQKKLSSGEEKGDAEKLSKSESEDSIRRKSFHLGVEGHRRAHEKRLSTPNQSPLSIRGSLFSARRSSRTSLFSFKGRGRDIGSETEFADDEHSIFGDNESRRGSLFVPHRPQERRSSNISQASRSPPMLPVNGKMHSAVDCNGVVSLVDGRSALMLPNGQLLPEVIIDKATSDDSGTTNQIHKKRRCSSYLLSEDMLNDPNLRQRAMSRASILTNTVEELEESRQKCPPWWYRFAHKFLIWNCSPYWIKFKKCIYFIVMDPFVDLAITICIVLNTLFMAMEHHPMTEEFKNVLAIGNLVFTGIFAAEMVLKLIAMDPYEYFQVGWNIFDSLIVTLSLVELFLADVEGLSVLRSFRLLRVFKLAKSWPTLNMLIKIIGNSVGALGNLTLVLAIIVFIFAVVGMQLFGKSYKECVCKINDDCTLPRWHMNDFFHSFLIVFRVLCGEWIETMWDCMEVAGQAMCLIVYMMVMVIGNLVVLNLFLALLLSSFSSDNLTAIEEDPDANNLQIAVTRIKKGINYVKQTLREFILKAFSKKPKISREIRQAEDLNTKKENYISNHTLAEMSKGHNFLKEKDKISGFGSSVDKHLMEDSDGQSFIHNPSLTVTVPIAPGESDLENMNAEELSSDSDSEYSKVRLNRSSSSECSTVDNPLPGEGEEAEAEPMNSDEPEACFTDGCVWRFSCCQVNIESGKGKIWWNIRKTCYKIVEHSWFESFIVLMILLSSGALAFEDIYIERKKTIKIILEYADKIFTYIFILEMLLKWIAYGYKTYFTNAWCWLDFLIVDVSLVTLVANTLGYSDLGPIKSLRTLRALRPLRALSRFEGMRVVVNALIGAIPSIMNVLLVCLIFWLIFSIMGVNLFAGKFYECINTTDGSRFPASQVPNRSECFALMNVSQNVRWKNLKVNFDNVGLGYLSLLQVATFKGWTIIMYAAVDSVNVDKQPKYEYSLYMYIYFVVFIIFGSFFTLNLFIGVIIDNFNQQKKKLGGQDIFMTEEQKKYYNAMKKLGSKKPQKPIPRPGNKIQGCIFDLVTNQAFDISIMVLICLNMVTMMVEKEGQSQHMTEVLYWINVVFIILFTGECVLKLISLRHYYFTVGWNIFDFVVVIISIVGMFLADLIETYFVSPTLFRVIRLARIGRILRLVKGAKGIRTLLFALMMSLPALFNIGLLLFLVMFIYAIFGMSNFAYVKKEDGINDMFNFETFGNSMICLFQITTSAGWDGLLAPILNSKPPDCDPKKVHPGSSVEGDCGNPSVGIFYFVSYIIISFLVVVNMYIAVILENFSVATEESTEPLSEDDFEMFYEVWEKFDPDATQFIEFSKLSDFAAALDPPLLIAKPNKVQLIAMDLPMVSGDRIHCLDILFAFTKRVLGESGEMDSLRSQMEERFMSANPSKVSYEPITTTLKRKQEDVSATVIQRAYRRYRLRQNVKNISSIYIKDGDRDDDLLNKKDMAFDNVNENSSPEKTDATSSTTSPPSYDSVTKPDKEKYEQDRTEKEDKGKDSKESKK

hNav1.5 = hNav1.5 (Homo sapiens, UniProt Q14524); settings: IonWorks Quattro, use-dependent protocol, hNav1.5; read-out: IWQ Use Nav1.5
Chain of hNav1.5 (Q14524 whole entry, looked up): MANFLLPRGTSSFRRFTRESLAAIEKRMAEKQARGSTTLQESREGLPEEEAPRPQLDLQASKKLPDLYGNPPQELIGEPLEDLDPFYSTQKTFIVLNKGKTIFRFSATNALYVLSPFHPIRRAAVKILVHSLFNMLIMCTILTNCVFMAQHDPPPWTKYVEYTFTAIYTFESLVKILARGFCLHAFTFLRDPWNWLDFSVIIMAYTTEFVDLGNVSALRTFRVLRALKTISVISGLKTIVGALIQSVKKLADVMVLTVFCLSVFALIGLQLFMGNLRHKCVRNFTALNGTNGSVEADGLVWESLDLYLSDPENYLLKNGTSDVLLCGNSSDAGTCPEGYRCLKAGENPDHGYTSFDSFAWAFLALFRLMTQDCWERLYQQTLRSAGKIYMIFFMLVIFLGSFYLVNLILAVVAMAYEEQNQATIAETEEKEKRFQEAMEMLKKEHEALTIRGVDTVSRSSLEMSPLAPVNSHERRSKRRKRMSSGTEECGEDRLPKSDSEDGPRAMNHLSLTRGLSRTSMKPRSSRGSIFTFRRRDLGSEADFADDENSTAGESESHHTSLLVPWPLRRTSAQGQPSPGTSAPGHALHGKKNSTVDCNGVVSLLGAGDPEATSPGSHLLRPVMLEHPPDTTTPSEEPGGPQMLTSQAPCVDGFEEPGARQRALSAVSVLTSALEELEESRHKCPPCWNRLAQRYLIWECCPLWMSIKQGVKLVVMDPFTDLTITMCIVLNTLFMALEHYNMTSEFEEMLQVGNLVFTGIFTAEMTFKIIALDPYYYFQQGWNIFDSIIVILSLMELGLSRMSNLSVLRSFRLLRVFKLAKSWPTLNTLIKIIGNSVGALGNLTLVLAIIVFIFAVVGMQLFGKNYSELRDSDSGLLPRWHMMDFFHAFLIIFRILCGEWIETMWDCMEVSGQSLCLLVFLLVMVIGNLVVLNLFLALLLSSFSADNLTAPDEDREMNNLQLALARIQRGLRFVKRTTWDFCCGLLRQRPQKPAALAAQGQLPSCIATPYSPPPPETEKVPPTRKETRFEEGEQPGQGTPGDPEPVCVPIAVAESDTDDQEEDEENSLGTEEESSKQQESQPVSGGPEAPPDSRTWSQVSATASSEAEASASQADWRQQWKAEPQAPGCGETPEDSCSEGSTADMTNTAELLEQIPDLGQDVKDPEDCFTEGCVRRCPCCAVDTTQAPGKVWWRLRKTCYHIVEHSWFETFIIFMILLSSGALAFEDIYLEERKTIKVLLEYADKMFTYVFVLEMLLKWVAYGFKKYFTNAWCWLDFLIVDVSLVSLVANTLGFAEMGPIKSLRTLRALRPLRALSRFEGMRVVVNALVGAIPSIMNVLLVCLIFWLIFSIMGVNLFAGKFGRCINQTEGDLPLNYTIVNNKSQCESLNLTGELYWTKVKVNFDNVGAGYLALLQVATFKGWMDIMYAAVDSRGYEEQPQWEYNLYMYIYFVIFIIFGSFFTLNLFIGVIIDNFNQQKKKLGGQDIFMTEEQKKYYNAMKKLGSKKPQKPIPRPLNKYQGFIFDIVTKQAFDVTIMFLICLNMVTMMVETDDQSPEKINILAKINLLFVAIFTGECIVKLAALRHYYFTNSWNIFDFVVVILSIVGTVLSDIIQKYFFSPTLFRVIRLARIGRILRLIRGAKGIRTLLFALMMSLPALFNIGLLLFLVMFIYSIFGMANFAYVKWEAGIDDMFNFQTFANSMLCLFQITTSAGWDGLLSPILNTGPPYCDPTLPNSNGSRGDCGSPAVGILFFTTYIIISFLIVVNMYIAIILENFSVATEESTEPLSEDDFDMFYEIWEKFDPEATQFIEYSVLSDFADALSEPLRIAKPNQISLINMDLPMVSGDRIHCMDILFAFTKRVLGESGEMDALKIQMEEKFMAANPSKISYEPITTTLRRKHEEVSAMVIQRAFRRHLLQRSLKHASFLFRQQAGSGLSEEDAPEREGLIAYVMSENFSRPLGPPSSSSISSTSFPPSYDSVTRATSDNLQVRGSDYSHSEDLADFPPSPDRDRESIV

hNav1.3 = hNav1.3 (Homo sapiens, UniProt Q9NY46); settings: IonWorks Quattro, use-dependent protocol, hNav1.3; read-out: IWQ Use Nav1.3

Row | SMILES | IC50 (hNav1.7) | IC50 (hNav1.5) | IC50 (hNav1.3)
1 | CC[C@H](C)[C@@H]1NC(=O)[C@@H]2CSSC[C@@H]3NC(=O)[C@H](C(C)C)NC(=O)[C@H](CC(C)C)NC(=O)[C@H](CC(N)=O)NC(=O)[C@@H]4CCCN4C(=O)[C@H](CCCNC(=N)N)NC(=O)[C@H](CSSC[C@H](NC(=O)[C@@H](N)CC(=O)O)C(=O)N[C@@H](CC(C)C)C(=O)NCC(=O)N(C)[C@@H](C(C)C)C(=O)N[C@@H](Cc4ccccc4)C(=O)N[C@@H](CCCNC(=N)N)C(=O)N[C@@H](CCCCN)C(=O)N2)NC(=O)[C@H](CSSC[C@@H](C(=O)N[C@@H](CCCCN)C(=O)N[C@@H](Cc2ccc(O)cc2)C(=O)N[C@H](C(=O)N[C@@H](Cc2ccccc2)C(N)=O)C(C)C)NC(=O)[C@H](Cc2c[nH]c4ccccc24)NC(=O)[C@H](CCCCN)NC(=O)[C@H](Cc2c[nH]cn2)NC(=O)[C@H]([C@@H](C)O)NC(=O)[C@H](CCCNC(=N)N)NC(=O)[C@H](CO)NC3=O)NC(=O)[C@H](CCCCN)NC(=O)[C@H](CC(=O)O)NC(=O)[C@H](CC(N)=O)NC(=O)[C@H](CC(=O)O)NC(=O)[C@@H]2CCCN2C1=O [compound 627] (H-DCLG[NMeV]FRKCIPDNDKCCRPNLVCSRTHKWCKYVF-NH2; disulfide 2-17, 9-23, 16-30) | 190 nM | 6000 nM | 250 nM
2 | CC[C@H](C)[C@@H]1NC(=O)[C@@H]2CSSC[C@@H]3NC(=O)[C@H](C(C)C)NC(=O)[C@H](CC(C)C)NC(=O)[C@H](CC(N)=O)NC(=O)[C@@H]4CCCN4C(=O)[C@H](CCCNC(=N)N)NC(=O)[C@H](CSSC[C@H](NC(=O)[C@@H](N)CC(=O)O)C(=O)N[C@@H](CC(C)C)C(=O)NCC(=O)N(C)[C@@H](CC(C)C)C(=O)N[C@@H](Cc4ccccc4)C(=O)N[C@@H](CCCNC(=N)N)C(=O)N[C@@H](CCCCN)C(=O)N2)NC(=O)[C@H](CSSC[C@@H](C(=O)N[C@@H](CCCCN)C(=O)N[C@@H](Cc2ccc(O)cc2)C(=O)N[C@H](C(=O)N[C@@H](Cc2ccccc2)C(N)=O)C(C)C)NC(=O)[C@H](Cc2c[nH]c4ccccc24)NC(=O)[C@H](CCCCN)NC(=O)[C@H](Cc2c[nH]cn2)NC(=O)[C@H]([C@@H](C)O)NC(=O)[C@H](CCCNC(=N)N)NC(=O)[C@H](CO)NC3=O)NC(=O)[C@H](CCCCN)NC(=O)[C@H](CC(=O)O)NC(=O)[C@H](CC(N)=O)NC(=O)[C@H](CC(=O)O)NC(=O)[C@@H]2CCCN2C1=O [compound 628] (H-DCLG[NMeL]FRKCIPDNDKCCRPNLVCSRTHKWCKYVF-NH2; disulfide 2-17, 9-23, 16-30) | 76 nM | 8400 nM | 91 nM
3 | CC[C@H](C)[C@@H]1NC(=O)[C@@H]2CSSC[C@@H]3NC(=O)[C@H](C(C)C)NC(=O)[C@H](CC(C)C)NC(=O)[C@H](CC(N)=O)NC(=O)[C@@H]4CCCN4C(=O)[C@H](CCCNC(=N)N)NC(=O)[C@H](CSSC[C@H](NC(=O)[C@@H](N)CC(=O)O)C(=O)N[C@@H](CC(C)C)C(=O)NCC(=O)N(C)[C@@H](Cc4ccccc4)C(=O)N[C@@H](Cc4ccccc4)C(=O)N[C@@H](CCCNC(=N)N)C(=O)N[C@@H](CCCCN)C(=O)N2)NC(=O)[C@H](CSSC[C@@H](C(=O)N[C@@H](CCCCN)C(=O)N[C@@H](Cc2ccc(O)cc2)C(=O)N[C@H](C(=O)N[C@@H](Cc2ccccc2)C(N)=O)C(C)C)NC(=O)[C@H](Cc2c[nH]c4ccccc24)NC(=O)[C@H](CCCCN)NC(=O)[C@H](Cc2c[nH]cn2)NC(=O)[C@H]([C@@H](C)O)NC(=O)[C@H](CCCNC(=N)N)NC(=O)[C@H](CO)NC3=O)NC(=O)[C@H](CCCCN)NC(=O)[C@H](CC(=O)O)NC(=O)[C@H](CC(N)=O)NC(=O)[C@H](CC(=O)O)NC(=O)[C@@H]2CCCN2C1=O [compound 629] (H-DCLG[NMeF]FRKCIPDNDKCCRPNLVCSRTHKWCKYVF-NH2; disulfide 2-17, 9-23, 16-30) | 77 nM | 13600 nM | 95 nM
4 | CC[C@H](C)[C@@H]1NC(=O)[C@@H]2CSSC[C@@H]3NC(=O)[C@H](C(C)C)NC(=O)[C@H](CC(C)C)NC(=O)[C@H](CC(N)=O)NC(=O)[C@@H]4CCCN4C(=O)[C@H](CCCNC(=N)N)NC(=O)[C@H](CSSC[C@H](NC(=O)[C@@H](N)CC(=O)O)C(=O)N[C@@H](CC(C)C)C(=O)NCC(=O)N[C@@H](Cc4ccccc4Cl)C(=O)N[C@@H](Cc4ccccc4)C(=O)N[C@@H](CCCNC(=N)N)C(=O)N[C@@H](CCCCN)C(=O)N2)NC(=O)[C@H](CSSC[C@@H](C(=O)N[C@@H](CCCCN)C(=O)N[C@@H](Cc2ccc(O)cc2)C(=O)N[C@H](C(=O)N[C@@H](Cc2ccccc2)C(N)=O)C(C)C)NC(=O)[C@H](Cc2c[nH]c4ccccc24)NC(=O)[C@H](CCCCN)NC(=O)[C@H](Cc2c[nH]cn2)NC(=O)[C@H]([C@@H](C)O)NC(=O)[C@H](CCCNC(=N)N)NC(=O)[C@H](CO)NC3=O)NC(=O)[C@H](CCCCN)NC(=O)[C@H](CC(=O)O)NC(=O)[C@H](CC(N)=O)NC(=O)[C@H](CC(=O)O)NC(=O)[C@@H]2CCCN2C1=O [compound 630] (H-DCLG[Phe(2-Cl)]FRKCIPDNDKCCRPNLVCSRTHKWCKYVF-NH2; disulfide 2-17, 9-23, 16-30) | 60 nM | 5800 nM | 9 nM
5 | CC[C@H](C)[C@@H]1NC(=O)[C@@H]2CSSC[C@@H]3NC(=O)[C@H](C(C)C)NC(=O)[C@H](CC(C)C)NC(=O)[C@H](CC(N)=O)NC(=O)[C@@H]4CCCN4C(=O)[C@H](CCCNC(=N)N)NC(=O)[C@H](CSSC[C@H](NC(=O)[C@@H](N)CC(=O)O)C(=O)N[C@@H](CC(C)C)C(=O)NCC(=O)N[C@@H](CCc4ccccc4)C(=O)N[C@@H](Cc4ccccc4)C(=O)N[C@@H](CCCNC(=N)N)C(=O)N[C@@H](CCCCN)C(=O)N2)NC(=O)[C@H](CSSC[C@@H](C(=O)N[C@@H](CCCCN)C(=O)N[C@@H](Cc2ccc(O)cc2)C(=O)N[C@H](C(=O)N[C@@H](Cc2ccccc2)C(N)=O)C(C)C)NC(=O)[C@H](Cc2c[nH]c4ccccc24)NC(=O)[C@H](CCCCN)NC(=O)[C@H](Cc2c[nH]cn2)NC(=O)[C@H]([C@@H](C)O)NC(=O)[C@H](CCCNC(=N)N)NC(=O)[C@H](CO)NC3=O)NC(=O)[C@H](CCCCN)NC(=O)[C@H](CC(=O)O)NC(=O)[C@H](CC(N)=O)NC(=O)[C@H](CC(=O)O)NC(=O)[C@@H]2CCCN2C1=O [compound 631] (H-DCLG[hPhe]FRKCIPDNDKCCRPNLVCSRTHKWCKYVF-NH2; disulfide 2-17, 9-23, 16-30) | 19 nM | 4900 nM | 5 nM
6 | CC[C@H](C)[C@@H]1NC(=O)[C@@H]2CSSC[C@@H]3NC(=O)[C@H](C(C)C)NC(=O)[C@H](CC(C)C)NC(=O)[C@H](CC(N)=O)NC(=O)[C@@H]4CCCN4C(=O)[C@H](CCCNC(=N)N)NC(=O)[C@H](CSSC[C@H](NC(=O)[C@@H](N)CC(=O)O)C(=O)N[C@@H](CC(C)C)C(=O)NCC(=O)N(C)CC(=O)N[C@@H](Cc4ccccc4)C(=O)N[C@@H](CCCNC(=N)N)C(=O)N[C@@H](CCCCN)C(=O)N2)NC(=O)[C@H](CSSC[C@@H](C(=O)N[C@@H](CCCCN)C(=O)N[C@@H](Cc2ccc(O)cc2)C(=O)N[C@H](C(=O)N[C@@H](Cc2ccccc2)C(N)=O)C(C)C)NC(=O)[C@H](Cc2c[nH]c4ccccc24)NC(=O)[C@H](CCCCN)NC(=O)[C@H](Cc2c[nH]cn2)NC(=O)[C@H]([C@@H](C)O)NC(=O)[C@H](CCCNC(=N)N)NC(=O)[C@H](CO)NC3=O)NC(=O)[C@H](CCCCN)NC(=O)[C@H](CC(=O)O)NC(=O)[C@H](CC(N)=O)NC(=O)[C@H](CC(=O)O)NC(=O)[C@@H]2CCCN2C1=O [compound 632] (H-DCLG[Sar]FRKCIPDNDKCCRPNLVCSRTHKWCKYVF-NH2; disulfide 2-17, 9-23, 16-30) | 680 nM | 10500 nM | 450 nM
7 | CC[C@H](C)[C@@H]1NC(=O)[C@@H]2CSSC[C@@H]3NC(=O)[C@H](C(C)C)NC(=O)[C@H](CC(C)C)NC(=O)[C@H](CC(N)=O)NC(=O)[C@@H]4CCCN4C(=O)[C@H](CCCNC(=N)N)NC(=O)[C@H](CSSC[C@H](NC(=O)[C@@H](N)CC(=O)O)C(=O)N[C@@H](CC(C)C)C(=O)NCC(=O)NCCC(=O)N[C@@H](CC(C)C)C(=O)N[C@@H](CCCNC(=N)N)C(=O)N[C@@H](CCCCN)C(=O)N2)NC(=O)[C@H](CSSC[C@@H](C(=O)N[C@@H](CCCCN)C(=O)N[C@@H](Cc2ccc(O)cc2)C(=O)N[C@H](C(=O)N[C@@H](Cc2ccccc2)C(N)=O)C(C)C)NC(=O)[C@H](Cc2c[nH]c4ccccc24)NC(=O)[C@H](CCCCN)NC(=O)[C@H](Cc2c[nH]cn2)NC(=O)[C@H]([C@@H](C)O)NC(=O)[C@H](CCCNC(=N)N)NC(=O)[C@H](CO)NC3=O)NC(=O)[C@H](CCCCN)NC(=O)[C@H](CC(=O)O)NC(=O)[C@H](CC(N)=O)NC(=O)[C@H](CC(=O)O)NC(=O)[C@@H]2CCCN2C1=O [compound 634] | 9300 nM | 14100 nM | 18100 nM
8 | CC[C@@H]1NC(=O)CNC(=O)[C@H](CC(C)C)NC(=O)[C@@H](NC(=O)[C@@H](N)CC(=O)O)CSSC[C@@H]2NC(=O)[C@@H]3CSSC[C@@H](C(=O)N[C@@H](CCCCN)C(=O)N[C@@H](Cc4ccc(O)cc4)C(=O)N[C@H](C(=O)N[C@@H](Cc4ccccc4)C(N)=O)C(C)C)NC(=O)[C@H](Cc4c[nH]c5ccccc45)NC(=O)[C@H](CCCCN)NC(=O)[C@H](Cc4c[nH]cn4)NC(=O)[C@H]([C@@H](C)O)NC(=O)[C@H](CCCNC(=N)N)NC(=O)[C@H](CO)NC(=O)[C@H](CSSC[C@H](NC(=O)[C@H](CCCCN)NC(=O)[C@H](CCCNC(=N)N)NC(=O)[C@H](CC(C)C)NC1=O)C(=O)N[C@@H]([C@@H](C)CC)C(=O)N1CCC[C@H]1C(=O)N[C@@H](CC(=O)O)C(=O)N[C@@H](CC(N)=O)C(=O)N[C@@H](CC(=O)O)C(=O)N[C@@H](CCCCN)C(=O)N3)NC(=O)[C@H](C(C)C)NC(=O)[C@H](CC(C)C)NC(=O)[C@H](CC(N)=O)NC(=O)[C@@H]1CCCN1C(=O)[C@H](CCCNC(=N)N)NC2=O [compound 636] | 290 nM | 16700 nM | 1000 nM

Reference: patent US9340590B2 (priority 2011, dated 2016)
